Molecules are shown by their SMILES.

One test relates to A549. In words: Growth inhibitory activity was measured for human A549 tumor cell line. Type of test: functional. Conditions: Homo sapiens, A549; read-out: ID50 (the source's name).
Test [1] deals with DU-145. As to the kind of experiment: The concentration levels of putrescine (PU) evaluated in DU145 cells treated with the compound concentration of 10 uM on fifth day of treatment. Conditions: Homo sapiens. Type of test: functional, cell-based.
Test [2] relates to DU-145. In words: The concentration levels of putrescine (PU) evaluated in DU145 cells treated with the compound concentration of 10 uM on third day of treatment. Type of test: functional, cell-based. The following applies: Homo sapiens.
In test [3] the test system is DU-145. In words: The concentration levels of spermidine (SD) evaluated in DU145 cells treated with the compound concentration of 10 uM on fifth day of treatment. Type of test: functional, cell-based. The following applies: Homo sapiens.
Test [4] deals with DU-145. In words: The concentration levels of spermidine (SD), evaluated in DU145 cells treated with the compound concentration of 10 uM on third day of treatment. Type of test: functional, cell-based. Conditions: Homo sapiens.
The subject of test [5] is DU-145. As to the kind of experiment: The concentration levels of analogue evaluated in DU145 cells treated with the compound concentration of 10 uM on fifth day of treatment. Type of test: functional, cell-based. The following applies: Homo sapiens.
Test [6] has as its system DU-145. As to the kind of experiment: The concentration levels of analogue evaluated in DU145 cells treated with the compound concentration of 10 uM on third day of treatment. Type of test: functional, cell-based. The following applies: Homo sapiens.
Test [7] relates to DU-145. In words: The concentration levels of spermine (SP) evaluated in DU145 cells treated with the compound concentration of 10 uM on fifth day of treatment. Type of test: functional, cell-based. Conditions: Homo sapiens.
The test system of test [8] is DU-145. As to the kind of experiment: The concentration levels of spermine (SP), evaluated in DU145 cells treated with the compound concentration of 10 uM on third day of treatment. Type of test: functional, cell-based. Conditions: Homo sapiens.
The next test relates to HT-29. In words: Growth inhibitory activity was measured for human HT-29 tumor cell line. Type of test: functional. Conditions: Homo sapiens, HT-29; read-out: ID50 (the source's name).
Another test deals with MCF7. As to the kind of experiment: Growth inhibitory activity was measured for human MCF-7 tumor cell line. Type of test: functional. Conditions: read-out: ID50 (the source's name).
The next test relates to PC-3. In words: Growth inhibitory activity was measured for human PC-3 tumor cell line. Type of test: functional. The following applies: Homo sapiens, PC-3; read-out: ID50 (the source's name).
The test system of another test is U-251. As to the kind of experiment: Growth inhibitory activity was measured for human U251MG NCI tumor cell line. Type of test: functional. The following applies: read-out: ID50 (the source's name).
In test [9] the test system is DU-145. As to the kind of experiment: The concentration levels of spermidine (SD) evaluated in DU145 cells treated with the compound concentration of 2 uM on third day of treatment. Type of test: functional, cell-based. The following applies: Homo sapiens.
In test [10] the test system is DU-145. In words: The concentration levels of spermidine (SD) evaluated in DU145 cells treated with the compound concentration of 0.02 uM on third day of treatment. Type of test: functional, cell-based. The following applies: Homo sapiens.
Test [11] has as its system DU-145. In words: The concentration levels of spermidine (SD), evaluated in DU145 cells treated with the compound concentration of 0.02 uM on first day of treatment. Type of test: functional, cell-based. Conditions: Homo sapiens.
For test [12], the system named is DU-145. In words: The concentration levels of spermidine (SD), evaluated in DU145 cells treated with the compound concentration of 2 uM on first day of treatment. The following applies: Homo sapiens. Type of test: functional, cell-based.
The test system of test [13] is DU-145. As to the kind of experiment: The concentration levels of analogue evaluated in DU145 cells treated with the compound concentration of 0.02 uM on first day of treatment. Type of test: functional, cell-based. Conditions: Homo sapiens.
In test [14] the test system is DU-145. As to the kind of experiment: The concentration levels of analogue evaluated in DU145 cells treated with the compound concentration of 0.02 uM on third day of treatment. Type of test: functional, cell-based. The following applies: Homo sapiens.
The test system of test [15] is DU-145. In words: The concentration levels of analogue evaluated in DU145 cells treated with the compound concentration of 2 uM on first day of treatment. Type of test: functional, cell-based. The following applies: Homo sapiens.
In test [16] the test system is DU-145. As to the kind of experiment: The concentration levels of analogue evaluated in DU145 cells treated with the compound concentration of 2 uM on third day of treatment. Type of test: functional, cell-based. The following applies: Homo sapiens.
The subject of test [17] is DU-145. In words: The concentration levels of spermine (SP) evaluated in DU145 cells treated with the compound concentration of 0.02 uM on third day of treatment. Type of test: functional, cell-based. Conditions: Homo sapiens.
The subject of test [18] is DU-145. As to the kind of experiment: The concentration levels of spermine (SP) evaluated in DU145 cells treated with the compound concentration of 2 uM on third day of treatment. Type of test: functional, cell-based. The following applies: Homo sapiens.
Test [19] concerns DU-145. In words: The concentration levels of spermine (SP), evaluated in DU145 cells treated with the compound concentration of 0.02 uM on first day of treatment. Type of test: functional, cell-based. Conditions: Homo sapiens.
In test [20] the test system is DU-145. In words: The concentration levels of spermine (SP), evaluated in DU145 cells treated with the compound concentration of 2 uM on first day of treatment. Type of test: functional, cell-based. Conditions: Homo sapiens.
Test [21] concerns DU-145. As to the kind of experiment: The concentration levels of putrescine (PU) evaluated in DU145 cells treated with the compound concentration of 0.02 uM on first day of treatment. Type of test: functional, cell-based. The following applies: Homo sapiens.
Test [22] has as its system DU-145. In words: The concentration levels of putrescine (PU) evaluated in DU145 cells treated with the compound concentration of 0.02 uM on third day of treatment. Type of test: functional, cell-based. The following applies: Homo sapiens.
For test [23], the system named is DU-145. As to the kind of experiment: The concentration levels of putrescine (PU) evaluated in DU145 cells treated with the compound concentration of 2 uM on first day of treatment. Type of test: functional, cell-based. Conditions: Homo sapiens.
Test [24] has as its system DU-145. As to the kind of experiment: The concentration levels of putrescine (PU) evaluated in DU145 cells treated with the compound concentration of 2 uM on third day of treatment. Type of test: functional, cell-based. The following applies: Homo sapiens.

In the case of `CCNCCCNCc1ccccc1CNCCCNCC`, the IC50 in the test with A549, in the test on HT-29, in the test with MCF7, in the test with PC-3 and in the test on U-251 was > 31.2 µM in each case. The Concentration (nM (10e6*cells)-1) was 0.06 with DU-145 [1]; 0.12 in the test on DU-145 [2]; 1.84 with DU-145 [3]; 1.5 with DU-145 [4]; 1.25 in the test with DU-145 [5]; 0.82 with DU-145 [6]. Moreover, the Concentration (nM (10e6*cells)-1) amounted to 2.13 in the test with DU-145 [7] and 2.7 in the test with DU-145 [8].
Regarding `CCNCCCNCC1CC1CNCCCNCC` (stereo in doubt; 5), the Concentration (nM (10e6*cells)-1) in the test on DU-145 [9] worked out at 1.38; with DU-145 [10] it was 1.41; in the test on DU-145 [11], 1.92; in the test with DU-145 [12], 2.63; in the test with DU-145 [13], 0.14; in the test with DU-145 [14], 0.06. The Concentration (nM (10e6*cells)-1) worked out at 0.33 in the test on DU-145 [15]; 0.18 with DU-145 [16]; 2.73 in the test with DU-145 [17]; 2.28 in the test with DU-145 [18]; 2.48 in the test with DU-145 [19]; 2.64 in the test on DU-145 [20]. Further, the Concentration (nM (10e6*cells)-1) in the test on DU-145 [21] is 0.2; in the test on DU-145 [22] it was 0.08; in the test on DU-145 [23], 0.55; in the test with DU-145 [24], 0.05.

The record behind these values is ChEMBL document CHEMBL1131189, “Conformationally restricted analogues of 1N,12N-bisethylspermine: synthesis and growth inhibitory effects on human tumor cell lines” (1998).
